Measurements from the NIST ThermoML archive (doi:10.1016/j.jct.2005.07.019).

Experiment: mn = molality of the nth substance listed, in mol/kg
Details: 350 kPa, Liquid, Extra sensitive DSC

N[C@@H](CO)C(=O)O [L-serine] + O
apparent molar heat capacity [J/K/mol]
Details | m1 = 0.015 | m1 = 0.0302 | m1 = 0.05 | m1 = 0.08 | m1 = 0.1249 | m1 = 0.2501 | m1 = 0.3717 | m1 = 0.7002 | m1 = 1.001
338.15 K | 167.3 | 166.8 | 165.8 | 166.2 | 166.4 | 167.6 | 168.91 | 172 | 176.07
343.15 K | 170.4 | 169.9 | 168.8 | 169 | 169.3 | 170.5 | 171.75 | 174.71 | 178.65
348.15 K | 173.7 | 172.4 | 171.4 | 171.6 | 171.9 | 173.1 | 174.28 | 177.14 | 181.02
353.15 K | 176 | 174.9 | 173.8 | 174 | 174.3 | 175.4 | 176.6 | 179.33 | 183.15
358.15 K | 178 | 176.9 | 176 | 176 | 176.4 | 177.4 | 178.6 | 181.28 | 185.03
363.15 K | 179 | 178.4 | 177.6 | 177.7 | 178.1 | 179.1 | 180.3 | 182.94 | 186.63
368.15 K | 181 | 179.7 | 178.9 | 179 | 179.6 | 180.6 | 181.8 | 184.38 | 188
373.15 K | 181 | 180.9 | 180.2 | 180.1 | 180.7 | 181.8 | 183 | 185.63 | 189.22
378.15 K | 181 | 181.7 | 181 | 180.7 | 181.7 | 182.9 | 183.9 | 186.55 | 190.12
383.15 K | 182 | 182.2 | 181.8 | 181.3 | 182.4 | 183.8 | 184.8 | 187.46 | 190.98
388.15 K | 183 | 182.6 | 182.7 | 181.4 | 183 | 184.4 | 185.4 | 188.07 | 191.6
393.15 K | 183 | 182.6 | 183.3 | 181.2 | 183.4 | 184.8 | 185.7 | 188.6 | 192.04
